Among the data in article doi:10.1101/504811v1 (biorxiv, 2018) are KM values, retold here.

This assay concerns the target T1, MPH-wt (Pseudomonas sp. WBC-3, UniProt Q841S6).
T1 sequence (Q841S6 36-331): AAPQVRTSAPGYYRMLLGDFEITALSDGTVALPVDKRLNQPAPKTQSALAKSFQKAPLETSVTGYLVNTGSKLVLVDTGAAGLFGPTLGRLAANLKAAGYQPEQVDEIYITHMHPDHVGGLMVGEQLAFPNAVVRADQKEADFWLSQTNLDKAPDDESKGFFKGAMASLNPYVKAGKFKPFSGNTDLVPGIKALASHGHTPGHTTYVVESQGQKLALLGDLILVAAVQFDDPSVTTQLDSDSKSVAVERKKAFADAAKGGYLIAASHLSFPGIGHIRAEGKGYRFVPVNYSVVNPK
The experiment in a line: hydrolysis kinetics, purified enzyme. It is filed as biochemical.

Take `O=C1CCc2ccccc2O1` [dihydrocoumarin]: the KM entry is listed as “only moderate DHCH activity”.
